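Tested at 5 concentrations; 48 h exposure; 96-well plates; endpoints linearly interpolated, else capped at highest concentration. Here, GI50 denotes the concentration required for 50% inhibition of growth. TGI is the concentration that stops growth completely.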
Legend:
Test in all cases: NCI tumour cell line growth inhibition, 48 h
KM12 colon = system: KM12 colon
LOX IMVI melanoma = system: LOX IMVI melanoma
PC-3 prostate = system: PC-3 prostate
SF-295 CNS = system: SF-295 CNS
SK-MEL-2 melanoma = system: SK-MEL-2 melanoma
T-47D breast = system: T-47D breast
U251 CNS = system: U251 CNS
OVCAR-4 ovarian = system: OVCAR-4 ovarian
SF-539 CNS = system: SF-539 CNS
SNB-75 CNS = system: SNB-75 CNS

## CC(=O)Oc1ccc2c(c1)[C@@]1(C)CCCC(C)(C)[C@@H]1CC2
KM12 colon
  GI50: 19.2 µM
  TGI: 45 µM
LOX IMVI melanoma
  GI50: 17.7 µM
  TGI: 32.1 µM
PC-3 prostate
  GI50: 20.1 µM
  TGI: 39 µM
SF-295 CNS
  GI50: 19.1 µM
  TGI: 56.6 µM
SK-MEL-2 melanoma
  GI50: 29.8 µM
  TGI: > 100 µM
T-47D breast
  GI50: 37.5 µM
  TGI: > 100 µM
U251 CNS
  GI50: 19.9 µM
  TGI: 35 µM

## Cc1coc2c1C(=O)C(=O)c1ccccc1-2
KM12 colon
  TGI: 3.49 µM
LOX IMVI melanoma
  TGI: 1.05 µM
OVCAR-4 ovarian
  TGI: 3.22 µM
SF-295 CNS
  TGI: 3.03 µM
SF-539 CNS
  TGI: 2.88 µM
SK-MEL-2 melanoma
  TGI: 3.78 µM
SNB-75 CNS
  TGI: 3.15 µM
U251 CNS
  TGI: 2.97 µM

## Cn1c(=O)nc2n(-c3ccc(Cl)cc3)c(-c3ccccc3)c(-c3ccccc3)nc-2c1=O
KM12 colon
  TGI: > 100 µM
OVCAR-4 ovarian
  TGI: > 100 µM
SF-295 CNS
  TGI: > 100 µM
SF-539 CNS
  TGI: 71.5 µM
SK-MEL-2 melanoma
  TGI: 60 µM
SNB-75 CNS
  TGI: > 100 µM
U251 CNS
  TGI: > 100 µM

## CCCOc1cc2ccccc2cc1C(=O)Nc1nc(NC)c2c(ccc3nccc32)[nH]1
KM12 colon
  GI50: 0.295 µM
  TGI: 1.46 µM
LOX IMVI melanoma
  GI50: 0.42 µM
  TGI: 1.76 µM
PC-3 prostate
  GI50: 0.494 µM
  TGI: 2 µM
SF-295 CNS
  GI50: 0.0866 µM
  TGI: 1.2 µM
SF-539 CNS
  GI50: 0.623 µM
  TGI: 2.06 µM
SK-MEL-2 melanoma
  GI50: 0.325 µM
  TGI: 1.36 µM
U251 CNS
  GI50: 0.521 µM
  TGI: 1.74 µM

## C[C@]12CC[C@@H]3c4ccc(O)cc4CC[C@H]3[C@@H]1CC[C@@H]2NS(=O)(=O)c1ccc(Br)cc1
KM12 colon
  GI50: 1.97 µM
  TGI: 3.89 µM
OVCAR-4 ovarian
  GI50: 3.01 µM
  TGI: 12.4 µM
PC-3 prostate
  GI50: 2.6 µM
  TGI: 13.8 µM
SF-295 CNS
  GI50: 1.75 µM
  TGI: 3.29 µM
SF-539 CNS
  GI50: 2.04 µM
  TGI: 3.92 µM
SK-MEL-2 melanoma
  GI50: 2.35 µM
  TGI: 5.3 µM
SNB-75 CNS
  GI50: 2.1 µM
  TGI: 9.15 µM
T-47D breast
  GI50: 3.35 µM
  TGI: 10.3 µM
U251 CNS
  GI50: 2.89 µM
  TGI: 10.6 µM

## COC(=O)c1cccc2c3ccccc3c3ccccc3c12
KM12 colon
  TGI: > 100 µM
LOX IMVI melanoma
  TGI: 81 µM
OVCAR-4 ovarian
  TGI: > 100 µM
SF-295 CNS
  TGI: 65.9 µM
SK-MEL-2 melanoma
  TGI: 58.7 µM
SNB-75 CNS
  TGI: > 100 µM
U251 CNS
  TGI: 73.6 µM

## C/C(=N\NC(N)=S)c1ccc(C)c(C)c1
KM12 colon
  TGI: > 100 µM
LOX IMVI melanoma
  TGI: > 100 µM
OVCAR-4 ovarian
  TGI: > 100 µM
SF-295 CNS
  TGI: > 100 µM
SF-539 CNS
  TGI: > 100 µM
SK-MEL-2 melanoma
  TGI: > 100 µM
SNB-75 CNS
  TGI: > 100 µM
U251 CNS
  TGI: > 100 µM

## CCCCCCCCOCC(O)CO (configuration not stated)
KM12 colon
  TGI: > 100 µM
LOX IMVI melanoma
  TGI: > 100 µM
OVCAR-4 ovarian
  TGI: > 100 µM
SF-295 CNS
  TGI: > 100 µM
SF-539 CNS
  TGI: > 100 µM
SK-MEL-2 melanoma
  TGI: > 100 µM
SNB-75 CNS
  TGI: > 100 µM
U251 CNS
  TGI: > 100 µM

## NCCCOc1cc2ccccc2cc1C(=O)Nc1ccc(Cl)cc1OC(=O)c1cc2ccccc2cc1OCCCN
KM12 colon
  GI50: 0.19 µM
  TGI: 0.394 µM
LOX IMVI melanoma
  GI50: 0.162 µM
  TGI: 0.316 µM
OVCAR-4 ovarian
  GI50: 0.146 µM
  TGI: 0.306 µM
PC-3 prostate
  GI50: 0.575 µM
  TGI: 1.58 µM
SF-295 CNS
  GI50: 0.516 µM
  TGI: 1.44 µM
SF-539 CNS
  GI50: 0.345 µM
  TGI: 0.9 µM
SK-MEL-2 melanoma
  GI50: 0.312 µM
  TGI: 1.2 µM
SNB-75 CNS
  GI50: 0.119 µM
  TGI: 0.859 µM
T-47D breast
  GI50: 0.282 µM
  TGI: 1.02 µM

## Nc1nonc1-c1nc2ccccc2n1Cc1ccc(F)cc1
KM12 colon
  GI50: 3.71 µM
  TGI: > 100 µM
LOX IMVI melanoma
  GI50: 6.48 µM
  TGI: > 100 µM
OVCAR-4 ovarian
  GI50: > 100 µM
  TGI: > 100 µM
SF-295 CNS
  GI50: 13.1 µM
  TGI: > 100 µM
SF-539 CNS
  GI50: 8.14 µM
  TGI: > 100 µM
SNB-75 CNS
  GI50: 1.41 µM
  TGI: 9.52 µM
T-47D breast
  GI50: > 100 µM
  TGI: > 100 µM
U251 CNS
  GI50: 7.48 µM
  TGI: > 100 µM

## O=C1C(=C2CCCC2)CCC1CN1CCCCC1 (configuration not stated)
KM12 colon
  TGI: 39.7 µM
OVCAR-4 ovarian
  TGI: 30.3 µM
SF-295 CNS
  TGI: > 100 µM
SF-539 CNS
  TGI: 50.1 µM
SK-MEL-2 melanoma
  TGI: 30.7 µM
SNB-75 CNS
  TGI: 15.5 µM
U251 CNS
  TGI: > 100 µM

## N#Cc1c(-c2ccccc2)cc(-c2ccc(N)cc2)[nH]c1=O
KM12 colon
  TGI: > 100 µM
LOX IMVI melanoma
  TGI: > 100 µM
OVCAR-4 ovarian
  TGI: > 100 µM
SF-295 CNS
  TGI: > 100 µM
SF-539 CNS
  TGI: > 100 µM
SNB-75 CNS
  TGI: > 100 µM
U251 CNS
  TGI: > 100 µM

## CC(C)(C)OP(=O)(OC(C)(C)C)C(O)c1ccc(/C=C(\C#N)C(N)=O)cc1 (configuration not stated)
KM12 colon
  TGI: > 100 µM
LOX IMVI melanoma
  TGI: > 100 µM
OVCAR-4 ovarian
  TGI: > 100 µM
SF-295 CNS
  TGI: > 100 µM
SF-539 CNS
  TGI: > 100 µM
SK-MEL-2 melanoma
  TGI: > 100 µM
SNB-75 CNS
  TGI: > 100 µM
U251 CNS
  TGI: > 100 µM

## O=S(=O)(NCCNc1nccc(-c2c(-c3ccc(F)c(O)c3)nc3sccn23)n1)c1ccc(Cl)cc1
LOX IMVI melanoma
  GI50: 1.78 µM
  TGI: > 50 µM
OVCAR-4 ovarian
  GI50: 2.79 µM
  TGI: > 50 µM
PC-3 prostate
  GI50: 1.14 µM
  TGI: > 50 µM
SF-295 CNS
  GI50: 2.35 µM
  TGI: 14.2 µM
SF-539 CNS
  GI50: 5.09 µM
  TGI: 11.9 µM
SK-MEL-2 melanoma
  GI50: 1.64 µM
  TGI: 7.99 µM
SNB-75 CNS
  GI50: 1.13 µM
  TGI: 9.31 µM
T-47D breast
  GI50: 1.08 µM
  TGI: 8.28 µM
U251 CNS
  GI50: 3.81 µM
  TGI: 16 µM

## COc1ccc(C(C)c2cc(OC)c(OC)c(OC)c2)cc1 (configuration not stated)
KM12 colon
  GI50: 0.058 µM
  TGI: > 50 µM
LOX IMVI melanoma
  GI50: 0.537 µM
  TGI: > 50 µM
OVCAR-4 ovarian
  GI50: 2.97 µM
  TGI: > 50 µM
PC-3 prostate
  GI50: 0.165 µM
  TGI: > 50 µM
SF-295 CNS
  GI50: 0.0752 µM
  TGI: > 50 µM
U251 CNS
  GI50: 0.173 µM
  TGI: > 50 µM

## COC(=O)CCC(=O)N1C/C(=C\c2ccccc2)C(=O)/C(=C/c2ccccc2)C1
KM12 colon
  TGI: 2.84 µM
LOX IMVI melanoma
  TGI: 1.59 µM
OVCAR-4 ovarian
  TGI: 4.92 µM
SF-295 CNS
  TGI: 5.87 µM
SF-539 CNS
  TGI: 7.53 µM
SNB-75 CNS
  TGI: 5.27 µM
U251 CNS
  TGI: 2.6 µM

## C=C1c2ccccc2C(=O)c2c1c1c(C(=O)OC)c(OC(=O)OCc3ccc([N+](=O)[O-])cc3)ccc1n2Cc1ccccc1
KM12 colon
  GI50: 12.7 µM
  TGI: 61.4 µM
LOX IMVI melanoma
  GI50: 35.7 µM
  TGI: > 100 µM
OVCAR-4 ovarian
  GI50: 23.2 µM
  TGI: > 100 µM
PC-3 prostate
  GI50: 0.329 µM
  TGI: 4.4 µM
SF-295 CNS
  GI50: 33.7 µM
  TGI: > 100 µM
SF-539 CNS
  GI50: 6.47 µM
  TGI: 32.3 µM
SK-MEL-2 melanoma
  GI50: 23.9 µM
  TGI: > 100 µM
U251 CNS
  GI50: 39.9 µM
  TGI: > 100 µM

## N#CC1=C(N)NC(=S)NC1c1ccc(-c2ccc(-c3nc4ccccc4o3)cc2)s1 (configuration not stated)
KM12 colon
  GI50: 15.1 µM
  TGI: > 50 µM
LOX IMVI melanoma
  GI50: 9.58 µM
  TGI: 21.4 µM
PC-3 prostate
  GI50: 9.78 µM
  TGI: > 50 µM
SF-295 CNS
  GI50: 13.3 µM
  TGI: 38.8 µM
SK-MEL-2 melanoma
  GI50: 9.2 µM
  TGI: 28.8 µM
T-47D breast
  GI50: 15.4 µM
  TGI: > 50 µM
U251 CNS
  GI50: 7.73 µM
  TGI: 14.4 µM

From PubChem BioAssay (NCI)
